Results published in publication PMC12368479, “Inhibition of the Clathrin Terminal Domain—Amphiphysin Protein–Protein Interaction. Probing the Pitstop 2 Aromatic Moiety” (Chemmedchem, 2025).
Where two headings read alike, the source gives them in different places.

How the values were obtained:
[1] = biological target: T1, clathrin heavy chain NTD (amino acids 1–364) – amphiphysin 1 B/C domain protein–protein interaction (NTD‐PPI) (Homo sapiens, UniProt Q00610); set-up: method as in PMID 21816279, PMID 27853797; conditions: Figure 1, lead Pitstop 2 and earlier analogs; read-out: IC50 (clathrin NTD‐PPI inhibition); cited from earlier work
T1 construct: GST‐tagged clathrin heavy chain NTD (amino acids 1–364); made in house
T1 sequence (Q00610 1-364): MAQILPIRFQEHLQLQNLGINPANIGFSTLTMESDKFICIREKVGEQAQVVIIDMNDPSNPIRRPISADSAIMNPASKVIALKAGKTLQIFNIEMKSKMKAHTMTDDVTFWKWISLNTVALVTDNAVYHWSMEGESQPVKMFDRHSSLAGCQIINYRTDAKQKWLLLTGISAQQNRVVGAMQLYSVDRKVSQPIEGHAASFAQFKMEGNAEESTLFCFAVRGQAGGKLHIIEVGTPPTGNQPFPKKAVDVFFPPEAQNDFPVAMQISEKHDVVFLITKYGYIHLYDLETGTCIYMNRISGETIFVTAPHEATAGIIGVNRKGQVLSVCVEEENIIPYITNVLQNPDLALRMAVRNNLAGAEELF

[2] = test system: transferrin uptake (CME) in U2OS osteosarcoma cells; assay: Clathrin-mediated endocytosis assay: transferrin (Tfn) uptake in U2OS cells; format: cell-based; conditions: Homo sapiens, U2OS
Method: Using our previously reported CME assay in U2OS cells, the ability of these compounds to block endocytosis was examined (Table 5 ).^[ [48], [49] ^]
CME was examined by a high‐throughput, quantitative assay for measuring transferrin (Tfn) uptake in U2OS osteosarcoma cells, based on methods described previously.^[ [48] ^]
Compounds were made up fresh from powder stock just prior to commencing the assay, and stock solutions were stored at −20 °C for several months.

[3] = Qualitative solubility in solvents (compound data sheets, Supporting Information); format: physicochemical; conditions: solvents in which the compound dissolves
[4] = biological target: T2, full length human Dynamin I (Homo sapiens, UniProt Q05193); assay: Dynamin GTPase activity, Malachite Green phosphate detection assay; format: biochemical
T2 construct: full length human Dynamin I expressed in Sf21 insect cells; made in house; host or cells: Sf21 insect cells
T2 sequence (Q05193 1-864): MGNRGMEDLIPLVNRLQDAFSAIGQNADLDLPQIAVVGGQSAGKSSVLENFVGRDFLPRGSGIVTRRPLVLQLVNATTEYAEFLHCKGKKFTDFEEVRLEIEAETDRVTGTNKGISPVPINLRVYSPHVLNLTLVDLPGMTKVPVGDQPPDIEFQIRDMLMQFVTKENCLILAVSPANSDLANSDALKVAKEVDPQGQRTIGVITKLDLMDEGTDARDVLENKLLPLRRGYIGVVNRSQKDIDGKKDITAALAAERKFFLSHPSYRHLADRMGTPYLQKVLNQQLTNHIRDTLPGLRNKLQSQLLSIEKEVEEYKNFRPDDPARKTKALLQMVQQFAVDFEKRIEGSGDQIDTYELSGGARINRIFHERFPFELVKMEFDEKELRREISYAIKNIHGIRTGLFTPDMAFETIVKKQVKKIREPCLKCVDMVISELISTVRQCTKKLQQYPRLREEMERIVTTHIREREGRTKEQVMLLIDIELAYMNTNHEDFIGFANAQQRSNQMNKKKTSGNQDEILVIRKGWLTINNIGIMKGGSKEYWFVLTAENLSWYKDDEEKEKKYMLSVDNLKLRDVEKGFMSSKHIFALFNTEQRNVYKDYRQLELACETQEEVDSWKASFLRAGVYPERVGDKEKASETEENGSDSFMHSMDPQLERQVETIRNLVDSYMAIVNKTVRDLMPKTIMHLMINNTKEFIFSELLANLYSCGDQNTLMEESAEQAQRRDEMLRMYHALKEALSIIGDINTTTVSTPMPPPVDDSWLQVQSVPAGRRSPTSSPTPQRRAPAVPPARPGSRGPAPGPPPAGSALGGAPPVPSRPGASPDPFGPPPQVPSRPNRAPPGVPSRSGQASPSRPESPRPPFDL
Method: Dynamin GTPase activity was determined in vitro using the Malachite Green phosphate detection absorbance‐based assay within a 96‐well plate format as described previously. The enzyme source was full length human Dynamin I expressed in Sf21 insect cells and affinity‐purified on GST‐Amph2‐SH3 (rat Amphiphysin 2 (494–588)).^[ [56] ^]

[5] = biological target: T1, clathrin heavy chain NTD (amino acids 1–364) – amphiphysin 1 B/C domain protein–protein interaction (NTD‐PPI); assay: ELISA-based clathrin inhibitor binding assay (NTD-PPI)
In short: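 His6-tagged amphiphysin 1 B/C domain (aa 250–578) was coated on plates in 20 mM HEPES pH 7.4, 50 mM NaCl, 1 mM DTT; compounds were incubated 1 h at room temperature with GST-clathrin NTD (aa 1–364). Bound NTD was detected by HRP anti-GST and TMB absorbance, expressed as percent binding of DMSO control.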

[6] = Table 5, inhibition of transferrin‐red uptake in U2OS cells, '–'/NA = not active at 100 μM
[7] = Table 1, library 1, n = 1 unless noted (19: n = 2), '–' = not active at 150 μM, read-out: Dyn 1 IC50
[8] = Table 5, dynamin GTPase, n = 1 or n = 2 as footnoted, NA = not active at 100 μM, read-out: Dynamin 1 IC50
[9] = Table 1, library 1, ELISA, average of duplicate measurements (n=2), read-out: NTD‐PPI IC50
[10] = Table 5, ELISA, read-out: NTD‐PPI IC50
[11] = Table 4, library 4, n = 1 or n = 2 as footnoted, '–' = not active at 100 μM, read-out: Dynamin 1 IC50
[12] = Table 4, library 4, ELISA, average of duplicate measurements (n = 2), read-out: NTD‐PPI IC50

Row | SMILES | IC50 [1] [µM] | IC50 [2, 6] [µM] | Solubility [3] | IC50 [4, 7] [µM] | IC50 [4, 8] [µM] | IC50 [5, 9] [µM] | IC50 [5, 10] [µM] | IC50 ([5]; read-out: NTD‐PPI IC50 (ELISA)) [µM] | fold potency reduction (NTD‐PPI) ([5]; ELISA, comparator not named (lead Pitstop 2 series)) [fold] | IC50 ([2]; U2OS cells) [µM] | IC50 [4, 11] [µM] | IC50 [5, 12] [µM]
1 | O=C1N=C(NS(=O)(=O)c2cccc3ccccc23)S/C1=C\c1ccc(Br)cc1 [Pitstop 2, (Z)‐N‐(5‐(4‐bromenzylidene)‐4‐oxo‐4,5‐dihydrothiazol‐2‐yl)naphthalene‐1‐sulfonamide] | 1.9 | – | – | – | – | – | – | – | – | – | – | –
2 | O=C1N=C(NS(=O)(=O)c2cccc(Cl)c2)S/C1=C\c1ccc(Br)cc1 [compound 2] | 5.1 | – | – | – | – | – | – | – | – | – | – | –
3 | O=C1N=C(NS(=O)(=O)c2cccc3ccccc23)S/C1=C\c1cccc(O)c1O [compound 3] | 3.5 | – | – | – | – | – | – | – | – | – | – | –
4 | O=C1N=C(NS(=O)(=O)c2cccc3ccccc23)S/C1=C\c1ccc(O)cc1 [compound 6, (Z)‐N‐(5‐(4‐hydroxybenzylidene)‐4‐oxo‐4,5‐dihydrothiazol‐2‐yl)naphthalene‐1‐sulfonamide] | – | 46.7 ± 13.1 | DMSO, slightly soluble in ethanol, acetone, methanol and ethyl acetate | > 150 | > 100 | 5.6 | 5.6 | 2.7 | – | – | – | –
5 | O=C1N=C(NS(=O)(=O)c2cccc3ccccc23)S/C1=C\c1ccccc1[N+](=O)[O-] [compound 15, (Z)‐N‐(5‐(2‐nitrobenzylidene)‐4‐oxo‐4,5‐dihydrothiazol‐2‐yl)naphthalene‐1‐sulfonamide] | – | 46.3 ± 13.7 | DMSO, slightly soluble in ethyl acetate, acetone, ethanol and methanol | 42.2 | ~42.4 | 153 | 153 | – | > 100 | – | – | –
6 | O=C1COc2ccc(/C=C3\SC(NS(=O)(=O)c4cccc5ccccc45)=NC3=O)cc2N1 [compound 52, (Z)‐N‐(4‐oxo‐5‐((3‐oxo‐3,4‐dihydro‐2H‐benzo[b][1,4]oxazin‐6‐yl)methylene)‐4,5‐dihydrothiazol‐2‐yl)naphthalene‐1‐sulfonamide] | – | > 100 | DM SO, slig htly soluble in acetone, ethanol an d m ethanol | – | ~54.1 | – | 3.33 | < 5 | – | > 50 | ~54.1 | 3.33
7 | O=C1N=C(NS(=O)(=O)c2cccc3ccccc23)S/C1=C\c1ccc2c(c1)CCO2 [compound 57, (Z)‐N‐(5‐((2,3‐dihydrobenzofuran‐5‐yl)methylene)‐4‐oxo‐4,5‐dihydrothiazol‐2‐yl)naphthalene‐1‐sulfonamide] | – | 58.1 ± 12.6 | DM SO, slig htly soluble in ethyl acetate, aceton e, ethanol and methanol | – | > 100 | – | – | < 5 | – | > 50 | > 100 | 3.27
